The subject of test [1] is IL-4-induced STAT6 phosphorylation, Ramos cells. Put plainly: IL-4-induced STAT6 phosphorylation in Ramos cells. In kind it is cell-based. The conditions noted are these: Homo sapiens, IL-4 stimulation, read-out: pSTAT6 (IC50). Here is the method:
For the determination of IL-4-induced STAT6 phosphorylation, Ramos cells (ATCC) are plated in 96 well plates at 1.0×10^4 cells per well 10% FBS RPMI-1640 and incubated at 37° C., 5% CO2 for 3 hours. Cells were incubated with compounds for 30 minutes prior to stimulation with interleukin-4 (10 ng/ml final) for an additional 30 minutes. Cells are then fixed in 2% paraformaldehyde for 45 minutes and incubated in ice-cold methanol for 30 minutes. After washing in PBS, cells are incubated with rabbit anti-phospho-STAT6 (Y641) (Cell Signaling Technologies, 1:1000 in antibody dilution solution) primary antibody overnight at 4° C. Goat anti-rabbit IgG Alexa 488 (Invitrogen, 1:1,000 dilution in PBS) secondary antibody is added for 90 minutes prior to PBS washes. Cells are counted following incubation in a 7.5 uM propidium iodide, 100 µg/ml RNaseA, PBS solution for 60 minutes in the dark. Plates are read on an Acumen X3 instrument (TPP Labtech).
(§1) Percent inhibition is calculated using the following formula: Inhibition (%)=100−((inhibitor treatment−cell)/(stimulator−cell))×100
(§2) where: Inhibitor treatment represents cell activation percentage of wells treated by both compound and stimulator (IL-6, IL-3 or IL-4); Cell represents the cell activation percentage of wells treated by neither compound nor stimulator (IL-6, IL-3 or IL-4). Stimulator represents the cell activation percentage of wells treated by stimulator (IL-6, IL-3 or IL-4) only.

The subject of test [2] is IL-6-induced STAT3 phosphorylation, HepG2 cells. Put plainly: IL-6-induced STAT3 phosphorylation in HepG2 cells. In kind it is cell-based, human. The conditions noted are these: IL-6 stimulation, read-out: pSTAT3 (IC50). As for the experimental part:
For the determination of IL-6-induced STAT3 phosphorylation, HepG2 cells (SIBS) are seeded in 96 well plates at […] cells per well in Serum Free DMEM media overnight and incubated in the presence or absence of various concentrations of diluted compound for 30 min at 37° C., 5% CO2. Cells were stimulated by adding 10 ng/ml human recombinant IL-6 to each well for 15 minutes at 37° C., 5% CO2. Cells are then fixed in 2% paraformaldehyde for 45 minutes at room temperature and incubated in ice-cold methanol for 30 minutes. After washing in PBS, cells are incubated with rabbit anti-phospho-STAT3 (Y705) (Cell Signaling Technologies, 1:1000 in antibody dilution solution) primary antibody overnight at 4° C. Goat anti-rabbit IgG Alexa 488 (Invitrogen, 1:1,000 dilution in PBS) secondary antibody is added for 90 minutes prior to PBS washes. Cells are counted following incubation in a 7.5 uM propidium iodide, 100 μg/ml RNaseA, PBS solution for 60 minutes in the dark. Plates are read on an Acumen X3 instrument (TPP Labtech).
as §1, §2

Test [3] relates to IL-3-induced STAT5 phosphorylation, TF-1 cells. Kind of test: IL-3-induced STAT5 phosphorylation in TF-1 cells. The format is cell-based, human. The conditions noted are these: IL-3 stimulation, read-out: pSTAT5 (IC50). As for the experimental part: For the determination of IL-3-induced STAT5 phosphorylation, TF-1 cells (ATCC) are plated in 96 well plates at 1×10^4 cells per well in 10% FBS RPMI-1640 media at 37° C., 5% CO2 for 3 hours. Cells were incubated in the presence or absence of various concentrations of diluted compound for 30 min at 37° C., 5% CO2. Cells were stimulated by adding 10 ng/ml human recombinant IL-3 to each well for 30 minutes at 37° C., 5% CO2. Cells are then fixed in 2% paraformaldehyde for 45 minutes at room temperature and incubated in ice-cold methanol for 30 minutes. After washing in PBS, cells are incubated with rabbit anti-phospho-STAT5 (Y694) (Cell Signaling Technologies, 1:1000 in antibody dilution solution) primary antibody overnight at 4° C. Goat anti-rabbit IgG Alexa 488 (Invitrogen, 1:1,000 dilution in PBS) secondary antibody is added for 90 minutes prior to PBS washes. Cells are counted following incubation in a 7.5 uM propidium iodide, 100 µg/ml RNaseA, PBS solution for 60 minutes in the dark. Plates are read on an Acumen X3 instrument (TPP Labtech).
as §1, §2

The target in test [4] is Recombinant human JAK1 catalytic domain (Homo sapiens (Human), UniProt P23458). Put plainly: JAK1 kinase assay (Z'-LYTE Tyr 6 Peptide). In kind it is biochemical. The conditions noted are these: read-out: inhibition percentage (IR %). Here is the method: JAK1/2/3 kinase assay are performed in vitro using Kit-Tyr 6 Peptide (Invitrogen, Cat. No. PV4122). TYK2 kinase assay are performed in vitro using Z′-LYTE™ Kinase Assay Kit-Tyr 3 Peptide (Invitrogen, Cat. No. PV3192). […] All compounds are initially tested at 8 different concentrations (1 μM down to 0.0003 μM) using a 1:3 serial dilution scheme.

Setting [5] is: JAK1 kinase assay, 0.3 uM concentration.

Read-outs that look alike come from different tables or passages of the source.

Sequence of Recombinant human JAK1 catalytic domain (P23458 875-1153): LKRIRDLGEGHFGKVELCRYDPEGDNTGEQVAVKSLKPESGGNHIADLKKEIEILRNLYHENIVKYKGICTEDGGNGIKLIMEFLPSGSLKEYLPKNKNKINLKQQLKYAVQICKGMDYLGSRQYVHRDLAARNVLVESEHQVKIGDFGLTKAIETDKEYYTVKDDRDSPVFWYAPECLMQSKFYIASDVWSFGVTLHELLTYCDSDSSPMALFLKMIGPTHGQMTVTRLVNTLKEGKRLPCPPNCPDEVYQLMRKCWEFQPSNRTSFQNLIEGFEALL

As a reminder, the IC50 is the point on the concentration scale where inhibition reaches its midpoint. One may read the inhibition as the share of the control response that was lost under treatment. In the case of `CN(c1ncc(C#N)cn1)[C@@H]1CCN(c2ncnc3[nH]ccc23)C1` [Compound 142, (R)-2-((1-(7H-pyrrolo[2,3-d]pyrimidin-4-yl)pyrrolidin-3-yl)(methyl)amino)pyrimidine-5-carbonitrile], the IC50 in test [1] amounted to 336 nM; in test [2] (Homo sapiens), 65 nM; in test [3] (Homo sapiens), 3070 nM. Moreover, in test [4], the inhibition at 0.3 µM was in the range of 20 to 50%.
Regarding `CN(c1ccc(S(N)(=O)=O)cn1)[C@@H]1CCN(c2ncnc3[nH]ccc23)C1` [Compound 234], the IC50 is 385 nM in test [1], 337 nM in test [2] (Homo sapiens) and 857 nM in test [3] (Homo sapiens). Further, the inhibition at 0.3 µM in test [4] (setting [5]) lay in the range of 50 to 100%.
In the same order, the values of `CN(c1ccc(C(=O)N[C@@H]2c3ccccc3C[C@H]2O)cc1F)[C@@H]1CCN(c2ncnc3[nH]ccc23)C1` [Compound 206] are 180 nM, 23.9 nM, 693 nM and 50 to 100%.
Consider `CNS(=O)(=O)N(C)[C@@H]1CCN(c2ncnc3[nH]ccc23)C1` [Compound 47], for which the results for the IC50 in test [1], in test [2] (Homo sapiens) and in test [3] (Homo sapiens) were 1150 nM, 824 nM and 1490 nM, respectively. Besides, the inhibition at 0.3 µM in test [4] (setting [5]) lay within 50 to 100%.
With `CN(c1ccc(C(=O)Nc2nccs2)cn1)[C@@H]1CCN(c2ncnc3[nH]ccc23)C1` [Compound 199], the IC50 in test [2] turned out to be 50 nM; in test [3], 7550 nM.
Consider `CN(c1ccc(C#N)c(F)c1)[C@@H]1CCN(c2ncnc3[nH]ccc23)C1` [Compound 105], for which the figures for the half-maximal inhibitory concentration (IC50) in test [2] (Homo sapiens) and in test [3] (Homo sapiens) were 9 nM and 1680 nM, respectively. For the same molecule, in test [4] (setting [5]), the inhibition at 0.3 µM lay in the range of 50 to 100%.
As to `N#Cc1ccc2c(c1)CCN2C1CCN(c2ncnc3[nH]ccc23)C1` (stereo not drawn) [Compound 46], the inhibition at 0.3 µM in test [4] (setting [5]) lay in the range of 50 to 100%.
Still for that read-out and setting: the value for `COC(=O)c1ccc(N(C)[C@@H]2CCN(c3ncnc4[nH]ccc34)C2)nc1` [Compound 168] was 50 to 100%; that for `COc1ccc(NC(=O)c2ccc(N(C)[C@@H]3CCN(c4ncnc5[nH]ccc45)C3)nc2)cc1` [Compound 183] was 50 to 100%; that for `CCN(c1ccc(S(C)(=O)=O)cn1)[C@@H]1CCN(c2ncnc3[nH]ccc23)C1` [Compound 44] was 20 to 50%.
The same measure, in the same setting: to `CN(c1ccc(C(=O)NCc2ccccc2)cc1F)[C@@H]1CCN(c2ncnc3[nH]ccc23)C1` [Compound 187] belongs 50 to 100%; to `CN(C(=O)N[C@@H]1c2ccccc2C[C@H]1O)[C@@H]1CCN(c2ncnc3[nH]ccc23)C1` [Compound 29, 1-((R)-1-(7H-pyrrolo[2,3-d]pyrimidin-4-yl)pyrrolidin-3-yl)-3-((1R,2R)-2-hydroxy-2,3-dihydro-1H-inden-1-yl)-1-methylurea], 50 to 100%.
With `CN(c1ccc(C#N)nc1)[C@@H]1CCN(c2ncnc3[nH]ccc23)C1` [Compound 76], the inhibition at 0.3 µM in test [4] (setting [5]) was in the range of 20 to 50%.
In the case of `COCC(=O)Nc1ccc(N(C)[C@@H]2CCN(c3ncnc4[nH]ccc34)C2)nc1` [Compound 228], the inhibition at 0.3 µM in test [4] (setting [5]) was 20 to 50%.
As to `CN(c1ncc(C#N)cc1Br)[C@@H]1CCN(c2ncnc3[nH]ccc23)C1` [Compound 99], the inhibition at 0.3 µM in test [4] (setting [5]) lay within 50 to 100%.

Source of the values: patent US10111875B2, “Pyrrolopyrimidine compounds and uses thereof” (HUTCHISON MEDIPHARMA LIMITED, priority 2010, dated 2018).
